Measured values: PubChem BioAssay (NCI)
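Briefly, cells in 96-well plates were exposed to five compound concentrations for 48 h, and endpoints were estimated by linear interpolation. TGI: concentration producing complete growth inhibition.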

Assays:
Test in all cases: DTP human tumour cell line panel, 48 h
NCI/ADR-RES ovarian = system: NCI/ADR-RES ovarian
MALME-3M melanoma = system: MALME-3M melanoma
OVCAR-5 ovarian = system: OVCAR-5 ovarian
UO-31 renal = system: UO-31 renal
ACHN renal = system: ACHN renal
CAKI-1 renal = system: CAKI-1 renal
MCF7 breast = system: MCF7 breast
786-0 renal = system: 786-0 renal
NCI-H522 lung = system: NCI-H522 lung
SN12C renal = system: SN12C renal
OVCAR-4 ovarian = system: OVCAR-4 ovarian
HS 578T breast = system: HS 578T breast
DU-145 prostate = system: DU-145 prostate
SK-MEL-5 melanoma = system: SK-MEL-5 melanoma
BT-549 breast = system: BT-549 breast
RXF 393 renal = system: RXF 393 renal
NCI-H226 lung = system: NCI-H226 lung
SR leukemia = system: SR leukemia
A498 renal = system: A498 renal
U251 CNS = system: U251 CNS
CCRF-CEM leukemia = system: CCRF-CEM leukemia
SK-OV-3 ovarian = system: SK-OV-3 ovarian
MDA-MB-435 = system: MDA-MB-435
MOLT-4 leukemia = system: MOLT-4 leukemia
HOP-92 NSCLC = system: HOP-92 NSCLC
MDA-MB-231 breast = system: MDA-MB-231 breast
RPMI-8226 leukemia = system: RPMI-8226 leukemia
IGROV1 ovarian = system: IGROV1 ovarian
PC-3 prostate = system: PC-3 prostate
EKVX NSCLC = system: EKVX NSCLC
KM12 colon = system: KM12 colon
TK-10 renal = system: TK-10 renal
HL-60(TB) leukemia = system: HL-60(TB) leukemia
SNB-19 CNS = system: SNB-19 CNS
HCC-2998 colon = system: HCC-2998 colon
A549 NSCLC = system: A549 NSCLC
HCT-15 colon = system: HCT-15 colon
UACC-62 melanoma = system: UACC-62 melanoma
NCI-H23 lung = system: NCI-H23 lung
HOP-62 NSCLC = system: HOP-62 NSCLC
SF-295 CNS = system: SF-295 CNS
OVCAR-8 ovarian = system: OVCAR-8 ovarian
OVCAR-3 ovarian = system: OVCAR-3 ovarian
SK-MEL-28 melanoma = system: SK-MEL-28 melanoma
UACC-257 melanoma = system: UACC-257 melanoma
SK-MEL-2 melanoma = system: SK-MEL-2 melanoma
M14 melanoma = system: M14 melanoma
SF-539 CNS = system: SF-539 CNS
T-47D breast = system: T-47D breast
K-562 leukemia = system: K-562 leukemia
MDA-N = system: MDA-N
NCI-H460 lung = system: NCI-H460 lung
SF-268 CNS = system: SF-268 CNS
COLO 205 colon = system: COLO 205 colon
HT29 colon = system: HT29 colon
HCT-116 colon = system: HCT-116 colon
LOX IMVI melanoma = system: LOX IMVI melanoma
M19-MEL melanoma = system: M19-MEL melanoma
DLD-1 colon = system: DLD-1 colon
KM20L2 colon = system: KM20L2 colon
HOP-18 NSCLC = system: HOP-18 NSCLC
SNB-75 CNS = system: SNB-75 CNS
LXFL 529 NSCLC = system: LXFL 529 NSCLC
SW-620 colon = system: SW-620 colon
DMS 114 small cell lung = system: DMS 114 small cell lung
DMS 273 small cell lung = system: DMS 273 small cell lung

Measured: TGI

Cc1ccc(-c2cc(N)n(-c3nc4c(c(=O)n(C)c(=O)n4C)n3C)n2)cc1
> 100 µM: NCI/ADR-RES ovarian | MALME-3M melanoma | OVCAR-5 ovarian | UO-31 renal | ACHN renal | CAKI-1 renal | MCF7 breast | 786-0 renal | NCI-H522 lung | SN12C renal | OVCAR-4 ovarian | HS 578T breast | DU-145 prostate | SK-MEL-5 melanoma | BT-549 breast | RXF 393 renal | NCI-H226 lung | SR leukemia | A498 renal | U251 CNS | CCRF-CEM leukemia | SK-OV-3 ovarian | MDA-MB-435 | MOLT-4 leukemia | HOP-92 NSCLC | MDA-MB-231 breast | RPMI-8226 leukemia | IGROV1 ovarian | PC-3 prostate | EKVX NSCLC | KM12 colon | TK-10 renal | HL-60(TB) leukemia | SNB-19 CNS | HCC-2998 colon | A549 NSCLC | HCT-15 colon | UACC-62 melanoma | NCI-H23 lung | SF-295 CNS | OVCAR-8 ovarian | OVCAR-3 ovarian | SK-MEL-28 melanoma | UACC-257 melanoma | SK-MEL-2 melanoma | M14 melanoma | SF-539 CNS | T-47D breast | K-562 leukemia | MDA-N | NCI-H460 lung | SF-268 CNS | COLO 205 colon | HT29 colon | HCT-116 colon
63.9 µM: HOP-62 NSCLC

NC1=NS(=O)(=O)Nc2nc(-c3ccc([N+](=O)[O-])o3)[nH]c21
41 µM: MOLT-4 leukemia
30 µM: UACC-62 melanoma
34 µM: DMS 114 small cell lung
42.4 µM: HT29 colon
32.4 µM: M19-MEL melanoma | HOP-62 NSCLC
31.7 µM: U251 CNS
39.4 µM: NCI-H23 lung
31.5 µM: IGROV1 ovarian
35 µM: OVCAR-5 ovarian
30.1 µM: SK-MEL-28 melanoma
32 µM: DLD-1 colon
16.9 µM: CCRF-CEM leukemia
58.6 µM: KM20L2 colon
27.1 µM: HOP-92 NSCLC
31.3 µM: OVCAR-4 ovarian
31.6 µM: SF-539 CNS
44 µM: NCI-H460 lung
22.9 µM: K-562 leukemia
4.93 µM: HL-60(TB) leukemia
35.7 µM: CAKI-1 renal
> 100 µM: A498 renal | A549 NSCLC
44.1 µM: HCT-15 colon
29.4 µM: LOX IMVI melanoma
89.3 µM: OVCAR-8 ovarian
33.4 µM: NCI-H522 lung | SK-MEL-5 melanoma
30.6 µM: MALME-3M melanoma
35.9 µM: SNB-19 CNS
17.7 µM: HCT-116 colon
29 µM: 786-0 renal
52.8 µM: OVCAR-3 ovarian
33 µM: TK-10 renal
28.4 µM: M14 melanoma
32.2 µM: HCC-2998 colon
25.7 µM: LXFL 529 NSCLC
36.5 µM: UO-31 renal
35.4 µM: SW-620 colon
30.5 µM: ACHN renal
30.7 µM: SK-MEL-2 melanoma
36.4 µM: SN12C renal
25.5 µM: RXF 393 renal
38.7 µM: DMS 273 small cell lung | SF-268 CNS
46.7 µM: RPMI-8226 leukemia
36.1 µM: KM12 colon
29.8 µM: SF-295 CNS
30.3 µM: HOP-18 NSCLC | SNB-75 CNS

CCn1nc2c3c(ncn3C(C)(C)O2)c1=O
> 100 µM: NCI/ADR-RES ovarian | MALME-3M melanoma | OVCAR-5 ovarian | UO-31 renal | ACHN renal | LOX IMVI melanoma | CAKI-1 renal | MCF7 breast | 786-0 renal | NCI-H522 lung | SN12C renal | OVCAR-4 ovarian | HS 578T breast | DU-145 prostate | SK-MEL-5 melanoma | BT-549 breast | RXF 393 renal | NCI-H226 lung | SR leukemia | A498 renal | U251 CNS | CCRF-CEM leukemia | SK-OV-3 ovarian | MDA-MB-435 | MOLT-4 leukemia | HOP-92 NSCLC | MDA-MB-231 breast | RPMI-8226 leukemia | IGROV1 ovarian | PC-3 prostate | EKVX NSCLC | KM12 colon | TK-10 renal | HL-60(TB) leukemia | SNB-19 CNS | HCC-2998 colon | A549 NSCLC | HCT-15 colon | UACC-62 melanoma | NCI-H23 lung | HOP-62 NSCLC | SF-295 CNS | SW-620 colon | SK-MEL-28 melanoma | UACC-257 melanoma | SK-MEL-2 melanoma | M14 melanoma | T-47D breast | K-562 leukemia | MDA-N | NCI-H460 lung | SF-268 CNS | COLO 205 colon | HT29 colon | HCT-116 colon
